Data: patent US20090264383A1, “Inhibitor of Adenylyl Cyclase for Treating a Disorder of the Circadian Rhythm” (Medical Research Council, priority 2006, published 2009)
“Also recorded” adds a separate entry of the source.

Key:
SCN = assay: Free-running period of wheel-running behaviour, THFA infused to SCN by minipump and central cannula; assay type: in vivo; settings: chronic central THFA vs vehicle; continuous dim red light; nine mice
Protocol: (a) Representative double-plotted, actograms of (left) vehicle- and (right) THFA-treated mice entrained to a photoschedule of 12 hours light (shaded) and 12 hours dark and fitted with osmotic mini-pump and central cannula directed at SCN (asterisk) Mice were then released into continuous dim-red light and free-running period determined Note longer period in THFA-treated mice.
(§1) Recordings of luciferase activity from organotypic slices of SCN or peripheral tissues were made from 5-7 day old pups from PER2::LUC and, Per1::LUC mice using either photomultiplier assemblies for whole tissue emission or CCD camera for single SCN cell imaging (Hamamatsu Photonics Ltd, U.K.) as described May Wood et al 2006 Curr. Biol. Vol. 16 pp 599-605. cAMP-ELISA kit was purchased from R&D systems (Wiesbaden, Germany). NIH 3T3 cells were cultured as described (Kume et al 1999 Cell Vol 98 pp 193-205) and transfected using Genejuice (Novagen, San Diego, Calif.). All drugs were purchased from Sigma-Aldrich (Poole, UK) except PKA/Epac-active cAMP analogues (Axxora; Grünberg; Germany) and KT5720 (Calbiochem, Nottingbam, UK). Drugs were solubilized in medium or dimethylsulfoxide (DMSO) to make stock solutions 50-1000× the working solutions. […] Behavioural rhythms, recorded by running wheel and passive infra-red movement detectors, were analysed in Clocklab (Actimetrics, Evanston Ill.). […]

organotypic SCN slices = assay: Bioluminescence recording of circadian gene expression in organotypic SCN slices (mPer1::luc / PER2::LUC); assay type: cell-based, mice; settings: for effect on circadian period / effect on circadian amplitude / gene expression: wild-type mPer1::luc / PER2::LUC SCN slices; for synchrony of SCN neurons (CCD imaging): 1.0 μM MDL for over 7 days, PER2::LUC slice; for rescue of circadian gene expression in MDL-treated SCN slices: PER2-LUC SCN slices pre-treated with MDL (2.5 μM), Epac agonist 100 μM
Protocol: (§2) Per1::luciferase and; Per2-luc transgenic mice were used. For organotypic slice culture, brains were removed from pups 5-10 days old and sectioned at 300 um with a McIlwain “Tissue Chopper.” Slices were sorted and trimmed to contain principally SCN tissue and placed onto a Millipore membrane insert (PICMORG) for culture at 37° C. in 5% CO2 as described previously (Gainer et al, 1998).
Recordings of luciferase activity from organotypic slices of SCN or peripheral tissues were made from 5-7 day old pups from PER2::LUC and, Per1::LUC mice using either photomultiplier assemblies for whole tissue emission or CCD camera for single SCN cell imaging (Hamamatsu Photonics Ltd, U.K.) as described May Wood et al 2006 Curr. Biol. Vol. 16 pp 599-605. cAMP-ELISA kit was purchased from R&D systems (Wiesbaden, Germany). NIH 3T3 cells were cultured as described (Kume et al 1999 Cell Vol 98 pp 193-205) and transfected using Genejuice (Novagen, San Diego, Calif.). […] Drugs were solubilized in medium or dimethylsulfoxide (DMSO) to make stock solutions 50-1000× the working solutions. [DMSO] was never greater than 0.4%. RNA-interference against Epac1 and Epac 2 used pre-validated sequences as instructed (Validated Stealth RNAi, Invitrogen, CA). Western Blots were performed as Reddy et al (2006 Curr. Biol. Vol 16 oo 1107-15). Behavioural rhythms, recorded by running wheel and passive infra-red movement detectors, were analysed in Clocklab (Actimetrics, Evanston Ill.). Central cannulae directed stereotaxically at the SCN and sub-cutaneous minipumps (Alzet® model 1002 pump and brain infusion kit II) for drug infusion were fitted as instructed (Durect Corp. Cupertino, Calif.).
(§3) Statistical analysis was performed using Prism GraphPad™ and Statview™. Periods were calculated over ≧3 days recoding For comparative purposes, transcriptional amplitude from PMT recordings was calculated as 100× (post-treatment emission peak-trough/pre-treatment peak-trough). In all cases error bars indicate SEM about the mean where n≧3.

cAMP levels = assay: cAMP ELISA in synchronised NIH 3T3 fibroblast cultures; assay type: cell-based, mouse; settings: for cAMP levels: MDL at highest doses used
Protocol: as §2
(§4) Recordings of luciferase activity from organotypic slices of SCN or peripheral tissues were made from 5-7 day old pups from PER2::LUC and, Per1::LUC mice using either photomultiplier assemblies for whole tissue emission or CCD camera for single SCN cell imaging (Hamamatsu Photonics Ltd, U.K.) as described May Wood et al 2006 Curr. Biol. Vol. 16 pp 599-605. cAMP-ELISA kit was purchased from R&D systems (Wiesbaden, Germany). NIH 3T3 cells were cultured as described (Kume et al 1999 Cell Vol 98 pp 193-205) and transfected using Genejuice (Novagen, San Diego, Calif.). All drugs were purchased from Sigma-Aldrich (Poole, UK) except PKA/Epac-active cAMP analogues (Axxora; Grünberg; Germany) and KT5720 (Calbiochem, Nottingbam, UK). Drugs were solubilized in medium or dimethylsulfoxide (DMSO) to make stock solutions 50-1000× the working solutions. [DMSO] was never greater than 0.4%. RNA-interference against Epac1 and Epac 2 used pre-validated sequences as instructed (Validated Stealth RNAi, Invitrogen, CA). Western Blots were performed as Reddy et al (2006 Curr. Biol. Vol 16 oo 1107-15). Behavioural rhythms, recorded by running wheel and passive infra-red movement detectors, were analysed in Clocklab (Actimetrics, Evanston Ill.). Central cannulae directed stereotaxically at the SCN and sub-cutaneous minipumps (Alzet® model 1002 pump and brain infusion kit II) for drug infusion were fitted as instructed (Durect Corp. Cupertino, Calif.).

Water solubility = assay type: physicochemical
intact human neutrophils = settings: Simchowitz et al 1983; cited from earlier work
peripheral tissues = assay: Circadian recording in organotypic cultures of peripheral tissues from mPER2::LUC mice; assay type: cell-based
Protocol: as §1, with “solutions. [DMSO] was never greater than 0.4%.” for “solutions.”
Statistical analysis was performed using Prism GraphPad™ and Statview™. Periods were calculated over ≧3 days recoding For comparative purposes, transcriptional amplitude from PMT recordings was calculated as 100× (post-treatment emission peak-trough/pre-treatment peak-trough). […]

Clock mutant SCN = assay: Circadian period in Clock heterozygous and homozygous mutant SCN; assay type: cell-based, mice
Protocol: as §4, with “Central cannulae directed stereotaxically at the SCN and sub-cutaneous minipumps (Alzet® model 1002 pump and brain infusion kit II) for drug infusion were fitted as instructed (Durect Corp. Cupertino, Calif.).” left out

NIH 3T3 cells [1] = assay: Circadian gene expression in NIH 3T3 cells transfected with mBmal1::luc reporter; assay type: cell-based, mouse; settings: for effect on circadian period: 3T3 fibroblasts; for effect on circadian gene expression / output: mBmal1::luc reporter
Text: Inhibition of the Gsα-binding site of AC caused a dose-dependent, reversible, dampening of circadian gene expression from Per1::luciferase organotypic SCN slice cultures, monitored by photomultiplier tubes. To determine the generality of this effect, we examined 3-T3 fibroblast cells. Abrogation of the endogenous oscillation of cAMP concentration stopped circadian gene expression as reported by Bmal1::luciferase reporter constructs P-site AC inhibition prolonged fibroblast period from ca. 21 hours to ca. 30 hours.
as §4, §3

circadian period = settings: 0.3% lithium; 25% D2O; cited from earlier work
NIH 3T3 cells [2] = assay: Luciferase expression from control non-circadian promoter in NIH 3T3 cells; assay type: cell-based, mouse
JNK phosphorylation = assay: Western blot of 3T3 cell extracts (JNK and CREB phosphorylation); assay type: cell-based, mouse; settings: for JNK phosphorylation (pJNK): 3T3 cells, MDL 5.0 μm 40 hours, Epac agonist 100 μM, 2 hours; for CREB phosphorylation (pCREB): 3T3 cells given MDL, Epac agonist
Protocol: Epac had no effect on CREB phosphorylation.
as §4

adenylyl cyclase = settings: irreversibly binds the Gsα site; cited from earlier work
circadian clock = settings: administered in the evening; cited from earlier work

In the case of 9-(Tetrahydro-2′-furyl)adenine [THFA], the “free-running circadian period” value (SCN) is reported as “lengthens circadian period; also recorded: lengthening of free-running period; also recorded: significantly (p<0:01, t-test) lengthened”, the “saturating concentration of period lengthening (one-site inhibition model)” value (organotypic SCN slices; SCN slices) is reported as “around 2 mM” and the “circadian period under combined AC and JNK inhibition” value (organotypic SCN slices; THFA together with JNK inhibition, SCN and fibroblast clockwork) is reported as “around 36 hours”. The “period after removal of the drug” value (organotypic SCN slices; in vitro, after chronic incubation with THFA) was “approx. 24 hours”, the circadian period (organotypic SCN slices; mPer1::luc and mPER2-LUC SCN slices, dose-dependent increase from ca. 24) was about 31 h and the “effect on circadian period” value (organotypic SCN slices) was “reversible increase of circadian period; also recorded: Extended circadian period; also recorded: Reversible period lengthening; also recorded: period effect; also recorded: rapidly reversible upon drug washout; also recorded: increased period in individual neurons”. The “basal cAMP levels” value (cAMP levels; THFA) was “maintains basal levels; also recorded: without affecting its nadir; also recorded: did not alter basal levels of cAMP”, the “peak cAMP levels” value (cAMP levels; THFA) was “suppresses peak levels; also recorded: reduces the detectable, endogenous, biphasic rise in cAMP; also recorded: attenuated peak levels” and the “water solubility” value (Water solubility) was “water-soluble; also recorded: most readily water soluble”. The “toxicity” value (intact human neutrophils) was “non-toxic”, the “effect on circadian period” value (peripheral tissues; 2 mM THFA, all peripheral tissues tested) was “lengthens period; also recorded: dramatic increase in circadian period; also recorded: increases period in all tissues tested” and the “effect on circadian period” value (Clock mutant SCN) was “prolongs circadian period; also recorded: additive to that of the Clock mutation”. The “probable maximum period increase” value (NIH 3T3 cells [1]; 1.2 mM THFA) was “approximately 9 hours”, the circadian period (NIH 3T3 cells [1]; 1.2 mM THFA, untreated about 21 hours) was “about 30 hours” and the “effect on circadian period” value (NIH 3T3 cells [1]) was “Dose-dependent saturable period lengthening”. It also gave a circadian period (NIH 3T3 cells [1]; fibroblasts transfected with mBmal::luc reporter, lengthening from ca. 21) of about 31 h.
For `C[C@H]1O[C@@H](n2cnc3c(N)ncnc32)C[C@@H]1O` [2′,5′-dideoxyadenosine, 2′,5′-Dideoxyadenosine], the “effect on circadian period” value (organotypic SCN slices) was “Reversible period lengthening; also recorded: Period was lengthened” and the solubility (Water solubility; water, read-out: water soluble up to) was at least 125 mM.
In the case of `[2H]O[2H]` [D2O], the lengthening of period (circadian period) is listed as “approximately 5%”.
With `CC(C)Cn1c(=O)n(C)c(=O)c2[nH]cnc21` [IBMX] the “effect on circadian period” value (NIH 3T3 cells [1]) was “lengthened period in fibroblasts” and the “effect of THFA combined with IBMX on circadian period” value (NIH 3T3 cells [1]; THFA 1 mM plus IBMX 300 uM) was “did not enhance the effect of THFA”.
In the case of `CCCCCCOC(=O)[C@]1(O)C[C@@H]2O[C@@]1(C)n1c3ccccc3c3c4c(c5c6ccccc6n2c5c31)C(=O)NC4` [KT5720], the “effect on circadian amplitude / gene expression” value (organotypic SCN slices) is reported as “no significant effect” and the “effect on circadian period” value (organotypic SCN slices) is reported as “no significant effect”.
For `Cl.c1ccc(C2CCCC2NC2=NCCCCCCCCCCC2)cc1` (stereo not drawn) [MDL-12,330A], the “synchrony of SCN neurons (CCD imaging)” value (organotypic SCN slices) was “desynchronisation”, the “synchrony of SCN neurons (CCD imaging)” value (organotypic SCN slices; listed as MDL) was “became desynchronised” and the “effect on circadian amplitude / gene expression” value (organotypic SCN slices) was “reversible suppression of circadian protein expression; also recorded: reversible, dose-dependent dampening of circadian gene expression; also recorded: loss of circadian amplitude; also recorded: dampens transcriptional amplitude”. For the same compound, the “effect on circadian period” value (organotypic SCN slices) was “not affected”, the “effect on circadian amplitude / gene expression” value (organotypic SCN slices; listed as MDL) was “rapid, dose-dependent dampening of circadian cycling; also recorded: lost circadian amplitude” and the cAMP levels (cAMP levels) was “loss of measurable cAMP”. The cAMP levels (cAMP levels; listed as MDL) was “suppressed cAMP levels to below the sensitivity of detection”, the “luciferase expression from control, non-circadian promoter” value (NIH 3T3 cells [2]) was “no effect on luciferase expression” and the “effect on circadian output” value (peripheral tissues; organotypic kidney slices from mPER-2-LUC mice) was “Reversible, dose-dependent suppression of circadian output”. The “effect on circadian gene expression / output” value (NIH 3T3 cells [1]) was “dose dependent suppression of circadian gene expression”, the “effect on circadian gene expression / output” value (NIH 3T3 cells [1]; listed as MDL) was “Reversible, dose-dependent suppression of circadian output” and the “JNK phosphorylation (pJNK)” value (JNK phosphorylation) was “decline in JNK phosphorylation”. The IC50 (adenylyl cyclase) was 250 µM.
In the case of `COc1ccc2[nH]cc(CCNC(C)=O)c2c1` [Melatonin], the “phase resetting effect on the circadian clock” value (circadian clock) is listed as “approximately 30 minutes/day”.
For `COC1C2OP(O)(=S)OCC2OC1n1c(Sc2ccc(Cl)cc2)nc2c(N)ncnc21` (stereo not drawn) [Sp-8-CPT-2′-O-Me-cAMPS], the “rescue of circadian gene expression in MDL-treated SCN slices” value (organotypic SCN slices) was “dramatically restored circadian output”, the “rescue of circadian gene expression in MDL-treated SCN slices” value (organotypic SCN slices; listed as Epac agonist) was “can be rescued; also recorded: acute activation and synchronisation of cellular circadian gene expression; also recorded: significantly increased luciferase activity; also recorded: transiently activated and re-synchronised circadian gene expression” and the “effect on circadian amplitude / gene expression” value (organotypic SCN slices) was “no significant effect”. The “effect on circadian period” value (organotypic SCN slices) was “no significant effect”, the “CREB phosphorylation (pCREB)” value (JNK phosphorylation; listed as Epac) was “no effect” and the “CREB phosphorylation (pCREB)” value (JNK phosphorylation; listed as Epac agonist) was “not pCREB”. The “JNK phosphorylation (pJNK)” value (JNK phosphorylation; listed as Epac) was “significant increase in JNK activation” and the “JNK phosphorylation (pJNK)” value (JNK phosphorylation; listed as Epac agonist) was “reverses the decline in JNK phosphorylation; also recorded: increased pJNK”.
